Experimental findings from paper PMC2908543, “Uropathogenic Escherichia coli Modulates Immune Responses and Its Curli Fimbriae Interact with the Antimicrobial Peptide LL-37” (PLoS Pathogens, 2010) are described below.

This assay has as its system E. coli strain No. 12 and isogenic mutants. The format is cell-based, Escherichia coli. The following applies: for IC50: initially grown in biofilm (LB plates without salt), 10^5 CFU/ml, 0.6 µM to 20 µM peptide in 2-fold dilutions, LB broth without salt, 20 h, Alamar blue 570 nm, two experiments in triplicates, read-out: IC50 (concentration at which bacterial growth was inhibited to 50%). Here is the method: For further investigation, E. coli isolate No. 12 from a child with pyelonephritis was chosen. This was a typical isolate expressing both curli and cellulose as well as type 1 fimbriae and yielding an approximately median level of biofilm as measured on microtiter plates. One-step knockout of bcsA and csgBA was carried out according to the protocol of Datsenko and Wanner with modifications, [50]. The following mutants were constructed using oligos listed in Table 1; WE1 bcsA::Cm, deficient in cellulose production; WE11 csgBA::Cm, deficient in curli production; and WE16 csgBA bscA::Cm, deficient in both cellulose and curli production. Expression of curli and cellulose in strain No. 12 was confirmed by these knockouts. Production of type 1 fimbriae under the culture conditions used for experiments was confirmed by yeast agglutination (see below).
The susceptibility of wild-type and mutant E. coli strains to synthetic LL-37 and mCRAMP (Innovagen AB, Lund, Sweden) was determined using a broth microdilution method. Briefly, bacteria were grown overnight at 37°C on LB plates with or without salt, inhibiting or promoting the formation of biofilm, respectively. Then, bacteria were suspended in PBS and diluted in LB broth without salt in a concentration of 10^5 CFU/ml. The bacterial concentration was verified by viable count after serial dilutions in PBS. Bacteria (90 µl suspension) were grown in 96-well plates in the presence of 10 µl aqueous solution of synthetic LL-37 or mCRAMP in final concentrations ranging from 0.6 µM to 20 µM in 2-fold dilutions. After 20 h, bacterial viability was measured colorimetrically by reduction of Alamar blue (BioSource International, Camarillo, CA, USA) for 1 h at 37°C [57]. The IC50 was determined as the peptide concentration that gave 50% reduction of the absorbance at 570 nm relative to bacteria grown without peptide.
On the technique in general: Resazurin is reduced to fluorescent resorufin, in cell work by metabolically active cells.

Each structure is given as a SMILES string. Read-outs that look alike come from different tables or passages of the source.

For the compound `CC[C@H](C)[C@H](NC(=O)[C@H](CCCCN)NC(=O)[C@H](CCC(=O)O)NC(=O)[C@H](CCCCN)NC(=O)[C@H](CO)NC(=O)[C@H](CCCCN)NC(=O)[C@H](CCCNC(=N)N)NC(=O)[C@H](Cc1ccccc1)NC(=O)[C@H](Cc1ccccc1)NC(=O)[C@H](CC(=O)O)NC(=O)CNC(=O)[C@H](CC(C)C)NC(=O)[C@@H](N)CC(C)C)C(=O)NCC(=O)N[C@@H](CCCCN)C(=O)N[C@@H](CCC(=O)O)C(=O)N[C@@H](Cc1ccccc1)C(=O)N[C@@H](CCCCN)C(=O)N[C@@H](CCCNC(=N)N)C(=O)N[C@H](C(=O)N[C@H](C(=O)N[C@@H](CCC(N)=O)C(=O)N[C@@H](CCCNC(=N)N)C(=O)N[C@H](C(=O)N[C@@H](CCCCN)C(=O)N[C@@H](CC(=O)O)C(=O)N[C@@H](Cc1ccccc1)C(=O)N[C@@H](CC(C)C)C(=O)N[C@@H](CCCNC(=N)N)C(=O)N[C@@H](CC(N)=O)C(=O)N[C@@H](CC(C)C)C(=O)N[C@H](C(=O)N1CCC[C@H]1C(=O)N[C@@H](CCCNC(=N)N)C(=O)N[C@H](C(=O)N[C@@H](CCC(=O)O)C(=O)N[C@@H](CO)C(=O)O)[C@@H](C)O)C(C)C)[C@@H](C)CC)C(C)C)[C@@H](C)CC` [LL-37], under “bacteria pre-grown planktonically, curli expression suppressed (data not shown)”, the “difference in resistance between the strains” value was “no significant difference in the resistance”. The IC50 is 12 µM (curliated strains) and 6 to 7 µM (non-curliated strains).
